Laboratory results taken from ChEMBL document CHEMBL3044736, “Synthesis, characterization, solvatochromic properties, and antimicrobial evaluation of 5-acetyl-2-thioxo-dihydro-pyrimidine-4,6-dione-based chalcones” (2013).
Converted amounts (≈) assume the structure as drawn.

Legend:
Assay type in all cases: functional
[1] = tested on: Penicillium; assay: Antimicrobial activity against Penicillium wild strain assessed as diameter of growth inhibition zone at 250 ug/ml after 48-96 hr by agar cup diffusion method; conditions: read-out: DIZ
[2] = tested on: Penicillium; assay: Antimicrobial activity against Penicillium wild strain assessed as diameter of growth inhibition zone at 100 ug/ml after 48-96 hr by agar cup diffusion method; conditions: read-out: DIZ
[3] = tested on: Trichophyton rubrum; assay: Antimicrobial activity against Trichophyton rubrum MTCC 296 assessed as diameter of growth inhibition zone at 100 ug/ml after 48-96 hr by agar cup diffusion method; conditions: read-out: DIZ
[4] = tested on: Aspergillus clavatus; assay: Antimicrobial activity against Aspergillus clavatus MTCC 1323 assessed as diameter of growth inhibition zone at 100 ug/ml after 48-96 hr by agar cup diffusion method; conditions: read-out: DIZ
[5] = tested on: Candida albicans; assay: Antimicrobial activity against Candida albicans MTCC 227 assessed as diameter of growth inhibition zone at 100 ug/ml after 48-96 hr by agar cup diffusion method; conditions: read-out: DIZ
[6] = tested on: Penicillium; assay: Antimicrobial activity against Penicillium wild strain assessed as diameter of growth inhibition zone at 50 ug/ml after 48-96 hr by agar cup diffusion method; conditions: read-out: DIZ
[7] = tested on: Trichophyton rubrum; assay: Antimicrobial activity against Trichophyton rubrum MTCC 296 assessed as diameter of growth inhibition zone at 50 ug/ml after 48-96 hr by agar cup diffusion method; conditions: read-out: DIZ
[8] = tested on: Aspergillus clavatus; assay: Antimicrobial activity against Aspergillus clavatus MTCC 1323 assessed as diameter of growth inhibition zone at 50 ug/ml after 48-96 hr by agar cup diffusion method; conditions: read-out: DIZ
[9] = tested on: Candida albicans; assay: Antimicrobial activity against Candida albicans MTCC 227 assessed as diameter of growth inhibition zone at 50 ug/ml after 48-96 hr by agar cup diffusion method; conditions: read-out: DIZ
[10] = tested on: Penicillium; assay: Antimicrobial activity against Penicillium wild strain assessed as diameter of growth inhibition zone at 25 ug/ml after 48-96 hr by agar cup diffusion method; conditions: read-out: DIZ
[11] = tested on: Trichophyton rubrum; assay: Antimicrobial activity against Trichophyton rubrum MTCC 296 assessed as diameter of growth inhibition zone at 25 ug/ml after 48-96 hr by agar cup diffusion method; conditions: read-out: DIZ
[12] = tested on: Aspergillus clavatus; assay: Antimicrobial activity against Aspergillus clavatus MTCC 1323 assessed as diameter of growth inhibition zone at 25 ug/ml after 48-96 hr by agar cup diffusion method; conditions: read-out: DIZ
[13] = tested on: Candida albicans; assay: Antimicrobial activity against Candida albicans MTCC 227 assessed as diameter of growth inhibition zone at 25 ug/ml after 48-96 hr by agar cup diffusion method; conditions: read-out: DIZ
[14] = tested on: Penicillium; assay: Antimicrobial activity against Penicillium wild strain by agar cup diffusion method
[15] = tested on: Aspergillus clavatus; assay: Antimicrobial activity against Aspergillus clavatus MTCC 1323 by agar cup diffusion method
[16] = tested on: Pseudomonas aeruginosa; assay: Antimicrobial activity against Pseudomonas aeruginosa MTCC 1688 assessed as diameter of growth inhibition zone at 25 ug/ml after 18-24 hr by agar cup diffusion method; conditions: read-out: DIZ
[17] = tested on: Escherichia coli; assay: Antimicrobial activity against Escherichia coli MTCC 443 assessed as diameter of growth inhibition zone at 25 ug/ml after 18-24 hr by agar cup diffusion method; conditions: read-out: DIZ
[18] = tested on: Staphylococcus aureus; assay: Antimicrobial activity against Staphylococcus aureus MTCC 96 assessed as diameter of growth inhibition zone at 25 ug/ml after 18-24 hr by agar cup diffusion method; conditions: read-out: DIZ
[19] = tested on: Streptococcus pyogenes; assay: Antimicrobial activity against Streptococcus pyogenes MTCC 442 assessed as diameter of growth inhibition zone at 25 ug/ml after 18-24 hr by agar cup diffusion method; conditions: read-out: DIZ
[20] = tested on: Klebsiella pneumoniae; assay: Antimicrobial activity against Klebsiella pneumoniae MTCC 109 by agar cup diffusion method
[21] = tested on: Escherichia coli; assay: Antimicrobial activity against Escherichia coli MTCC 443 by agar cup diffusion method
[22] = tested on: Pseudomonas aeruginosa; assay: Antimicrobial activity against Pseudomonas aeruginosa MTCC 1688 by agar cup diffusion method
[23] = tested on: Staphylococcus aureus; assay: Antimicrobial activity against Staphylococcus aureus MTCC 96 by agar cup diffusion method
[24] = tested on: Streptococcus pyogenes; assay: Antimicrobial activity against Streptococcus pyogenes MTCC 442 by agar cup diffusion method
[25] = tested on: Trichophyton rubrum; assay: Antimicrobial activity against Trichophyton rubrum MTCC 296 by agar cup diffusion method
[26] = tested on: Candida albicans; assay: Antimicrobial activity against Candida albicans MTCC 227 by agar cup diffusion method
[27] = tested on: Klebsiella pneumoniae; assay: Antimicrobial activity against Klebsiella pneumoniae MTCC 109 assessed as diameter of growth inhibition zone at 250 ug/ml after 18-24 hr by agar cup diffusion method; conditions: read-out: DIZ
[28] = tested on: Pseudomonas aeruginosa; assay: Antimicrobial activity against Pseudomonas aeruginosa MTCC 1688 assessed as diameter of growth inhibition zone at 250 ug/ml after 18-24 hr by agar cup diffusion method; conditions: read-out: DIZ
[29] = tested on: Escherichia coli; assay: Antimicrobial activity against Escherichia coli MTCC 443 assessed as diameter of growth inhibition zone at 250 ug/ml after 18-24 hr by agar cup diffusion method; conditions: read-out: DIZ
[30] = tested on: Staphylococcus aureus; assay: Antimicrobial activity against Staphylococcus aureus MTCC 96 assessed as diameter of growth inhibition zone at 250 ug/ml after 18-24 hr by agar cup diffusion method; conditions: read-out: DIZ
[31] = tested on: Streptococcus pyogenes; assay: Antimicrobial activity against Streptococcus pyogenes MTCC 442 assessed as diameter of growth inhibition zone at 250 ug/ml after 18-24 hr by agar cup diffusion method; conditions: read-out: DIZ
[32] = tested on: Klebsiella pneumoniae; assay: Antimicrobial activity against Klebsiella pneumoniae MTCC 109 assessed as diameter of growth inhibition zone at 100 ug/ml after 18-24 hr by agar cup diffusion method; conditions: read-out: DIZ
[33] = tested on: Pseudomonas aeruginosa; assay: Antimicrobial activity against Pseudomonas aeruginosa MTCC 1688 assessed as diameter of growth inhibition zone at 100 ug/ml after 18-24 hr by agar cup diffusion method; conditions: read-out: DIZ
[34] = tested on: Escherichia coli; assay: Antimicrobial activity against Escherichia coli MTCC 443 assessed as diameter of growth inhibition zone at 100 ug/ml after 18-24 hr by agar cup diffusion method; conditions: read-out: DIZ
[35] = tested on: Staphylococcus aureus; assay: Antimicrobial activity against Staphylococcus aureus MTCC 96 assessed as diameter of growth inhibition zone at 100 ug/ml after 18-24 hr by agar cup diffusion method; conditions: read-out: DIZ
[36] = tested on: Streptococcus pyogenes; assay: Antimicrobial activity against Streptococcus pyogenes MTCC 442 assessed as diameter of growth inhibition zone at 100 ug/ml after 18-24 hr by agar cup diffusion method; conditions: read-out: DIZ
[37] = tested on: Klebsiella pneumoniae; assay: Antimicrobial activity against Klebsiella pneumoniae MTCC 109 assessed as diameter of growth inhibition zone at 50 ug/ml after 18-24 hr by agar cup diffusion method; conditions: read-out: DIZ
[38] = tested on: Pseudomonas aeruginosa; assay: Antimicrobial activity against Pseudomonas aeruginosa MTCC 1688 assessed as diameter of growth inhibition zone at 50 ug/ml after 18-24 hr by agar cup diffusion method; conditions: read-out: DIZ
[39] = tested on: Escherichia coli; assay: Antimicrobial activity against Escherichia coli MTCC 443 assessed as diameter of growth inhibition zone at 50 ug/ml after 18-24 hr by agar cup diffusion method; conditions: read-out: DIZ
[40] = tested on: Staphylococcus aureus; assay: Antimicrobial activity against Staphylococcus aureus MTCC 96 assessed as diameter of growth inhibition zone at 50 ug/ml after 18-24 hr by agar cup diffusion method; conditions: read-out: DIZ
[41] = tested on: Streptococcus pyogenes; assay: Antimicrobial activity against Streptococcus pyogenes MTCC 442 assessed as diameter of growth inhibition zone at 50 ug/ml after 18-24 hr by agar cup diffusion method; conditions: read-out: DIZ
[42] = tested on: Klebsiella pneumoniae; assay: Antimicrobial activity against Klebsiella pneumoniae MTCC 109 assessed as diameter of growth inhibition zone at 25 ug/ml after 18-24 hr by agar cup diffusion method; conditions: read-out: DIZ
[43] = tested on: Trichophyton rubrum; assay: Antimicrobial activity against Trichophyton rubrum MTCC 296 assessed as diameter of growth inhibition zone at 250 ug/ml after 48-96 hr by agar cup diffusion method; conditions: read-out: DIZ
[44] = tested on: Aspergillus clavatus; assay: Antimicrobial activity against Aspergillus clavatus MTCC 1323 assessed as diameter of growth inhibition zone at 250 ug/ml after 48-96 hr by agar cup diffusion method; conditions: read-out: DIZ
[45] = tested on: Candida albicans; assay: Antimicrobial activity against Candida albicans MTCC 227 assessed as diameter of growth inhibition zone at 250 ug/ml after 48-96 hr by agar cup diffusion method; conditions: read-out: DIZ

O=C(/C=C/c1ccc(O)cc1)C1C(=O)NC(=S)NC1=O
zone of inhibition at 250 µg/mL [1]: 24 mm
zone of inhibition at 100 µg/mL [2]: 22 mm
zone of inhibition at 100 µg/mL [3]: 24 mm
zone of inhibition at 100 µg/mL [4]: 22 mm
zone of inhibition at 100 µg/mL [5]: 23 mm
zone of inhibition at 50 µg/mL [6]: 19 mm
zone of inhibition at 50 µg/mL [7]: 22 mm
zone of inhibition at 50 µg/mL [8]: 21 mm
zone of inhibition at 50 µg/mL [9]: 20 mm
zone of inhibition at 25 µg/mL [10]: 18 mm
zone of inhibition at 25 µg/mL [11]: 22 mm
zone of inhibition at 25 µg/mL [12]: 21 mm
zone of inhibition at 25 µg/mL [13]: 16 mm
MFC [14]: > 1000 µg/mL
MIC [14]: > 1000 µg/mL
MFC [15]: 500 µg/mL (≈ 1720 µM)
MIC [15]: 500 µg/mL (≈ 1720 µM)
zone of inhibition at 25 µg/mL [16]: 10 mm
zone of inhibition at 25 µg/mL [17]: 15 mm
zone of inhibition at 25 µg/mL [18]: 10 mm
zone of inhibition at 25 µg/mL [19]: 15 mm
MBC [20]: 200 µg/mL (≈ 689 µM)
MIC [20]: 125 µg/mL (≈ 431 µM)
MBC [21]: 250 µg/mL (≈ 861 µM)
MIC [21]: 250 µg/mL (≈ 861 µM)
MBC [22]: 500 µg/mL (≈ 1720 µM)
MIC [22]: 250 µg/mL (≈ 861 µM)
MBC [23]: 500 µg/mL (≈ 1720 µM)
MIC [23]: 250 µg/mL (≈ 861 µM)
MBC [24]: 250 µg/mL (≈ 861 µM)
MIC [24]: 100 µg/mL (≈ 344 µM)
MFC [25]: > 1000 µg/mL
MIC [25]: > 1000 µg/mL
MFC [26]: 500 µg/mL (≈ 1720 µM)
MIC [26]: > 1000 µg/mL
zone of inhibition at 250 µg/mL [27]: 18 mm
zone of inhibition at 250 µg/mL [28]: 18 mm
zone of inhibition at 250 µg/mL [29]: 17 mm
zone of inhibition at 250 µg/mL [30]: 18 mm
zone of inhibition at 250 µg/mL [31]: 17 mm
zone of inhibition at 100 µg/mL [32]: 16 mm
zone of inhibition at 100 µg/mL [33]: 16 mm
zone of inhibition at 100 µg/mL [34]: 16 mm
zone of inhibition at 100 µg/mL [35]: 16 mm
zone of inhibition at 100 µg/mL [36]: 16 mm
zone of inhibition at 50 µg/mL [37]: 11 mm
zone of inhibition at 50 µg/mL [38]: 14 mm
zone of inhibition at 50 µg/mL [39]: 17 mm
zone of inhibition at 50 µg/mL [40]: 14 mm
zone of inhibition at 50 µg/mL [41]: 17 mm
zone of inhibition at 25 µg/mL [42]: 10 mm
zone of inhibition at 250 µg/mL [43]: 24 mm
zone of inhibition at 250 µg/mL [44]: 24 mm
zone of inhibition at 250 µg/mL [45]: 23 mm
